The subject of test [1] is Raji target cells. Briefly: 24-hr lysis assay of inhibitor-treated Leu16 CAR-T cells against Raji. To be noted: three E:T ratios, vs vehicle-treated. The test is classed as cell-based. An excerpt: FIG. 4A-C. Characterization of pharmacologically treated Leu16 CAR-T cells in vitro. (A) TNF-α production CAR+ T cells in the absence of antigen stimulation as quantified by intracellular flow cytometry. Data bars indicate the means of technical triplicates ±1 S.D. ns not statistically significant. (B) Leu16 CAR-T cell fold expansion after 6 days of inhibitor culture was tracked. The bars in FIGS. 4A and 4B, represent data from, EGFRt, Leu16-28z (vehicle), Leu16-28z (MYCi975), Leu16-28z (Betulin), and Leu16-28z (Rapamycin), respectively, from left to right. (C) A 24-hr lysis assay of CAR-T cells against Raji target cells at three effector-to-target (E:T) ratios. Data bars indicate the means of technical triplicates±1 S.D. Percent lysis was normalized to cell counts in target-only wells.
Cytotoxicity assay with Raji cells. Raji cells were seeded at 2×10^5 cells/well in 96-well U-bottom plate and coincubated with CAR^+ T cells at 1:1, 3.33:1, and 10:1 E:T ratios. Untransduced T cells were added to wells as needed to normalize for differing transduction efficiencies and ensure the total number of T cells per well was consistent throughout. Remaining target cells were quantified by MACSQuant VYB flow cytometer 24-hr post co-incubation.

Test [2] has as its system rituximab CAR-T cells. Briefly: Antigen-independent activation and exhaustion marker expression by flow cytometry, rituximab CAR-T cells. The format is cell-based, human. Conditions: for measures of antigen-independent CAR-T cell activation: FIG. 1B-D (markers, TNF-α, cell division), MYCi975 2 μM. The text has this: FIG. 1A-G. Pharmacological inhibition of PI3K/AKT pathway modulates antigen-independent CAR-T cell activation. (A) Table of pharmacological inhibitors used during ex vivo expansion of rituximab CAR-T cells (left). Simplified schematic of the PI3K/AKT signaling axis where black arrows represent activation (right). (B) Activation marker expression by CAR^+ T cells in the absence of antigen stimulation after 5 days of pharmacological modulation. Data bars indicate the means of technical triplicates±1 S.D. The bars in FIG. 1B represent data from, untreated, vehicle, CAL-101, AZD5363, Rapamycin, MYCi975, and Betulin, respectively, from left to right. (C) TNF-α production CAR^+ T cells in the absence of antigen stimulation as quantified by intracellular flow cytometry. Data bars indicate the means of technical triplicates±1 S.D. The bars in FIG. 1B and FIG. 1C represent data from, untreated, vehicle, CAL-101, AZD5363, Rapamycin, MYCi975, and Betulin, respectively, from left to right. (D) Proliferation of CAR^+ T cells stained with CellTrace Violet (CTV) dye was assayed after a 4-day culture in the absence of target cells or exogenous cytokines. Data shown in the histogram correspond to one of technical triplicates shown in the bar graph. The bars FIG. 1D represent data from, EGFRt, untreated, vehicle, CAL-101, AZD5363, Rapamycin, MYCi975, and Betulin, respectively, from left to right. (E) % distribution of T-cell subtypes in CAR^+ T cells after 5 days of pharmacological modulation. Data bars indicate the means of technical triplicates±1 S.D. (F) Rituximab CAR-T cell fold expansion after 6 days of inhibitor culture was tracked. T-cell fold expansion was normalized to the untreated control with each data point representing biological replicates collected from healthy donors. The bars FIG. 1F represent data from, EGFRt, vehicle, CAL-101, AZD5363, Rapamycin, MYCi975, and Betulin, respectively, from left to right. (G) A 24-hr lysis assay of CD20 CAR-T cells against Raji target cells at three effector-to-target (E:T) ratios. Data bars indicate the means of technical triplicates±1 S.D. Percent lysis was normalized to cell counts in target-only wells. […] In (B)-(F), results are representative two independent experiments using cells from of two heathy donors. Statistical significance in panels B, C, and D was determined by two-tailed Student's t test with Sidak correction for multiple comparisons. * p<0.05, ** p<0.01, *** p<0.001, n.s. not statistically significant. […]
Antibody staining for flow-cytometry analysis. EGFRt expression was measured with biotinylated cetuximab (Eli Lilly; biotinylated in-house), followed by PE-conjugated streptavidin (Jackson ImmunoResearch #016-110-084). CAR expression was quantified by surface epitope staining using anti-Fc (Alexa Fluor 488, Jackson ImmunoResearch #709-546-098). Antigen-independent activation-marker expression of CAR-T cells was evaluated by antibody staining for CD137 (PE/Cy7, clone 4B4-1, BioLegend #309818), and PD-1 (FITC, clone EH12.2H7, BioLegend #329904) on Days 18 (i.e., 18 days after Dynabead addition and 11 days after Dynabead removal) and after 5-6 days of inhibitor culture (FIG. 1, FIG. 3). T-cell subtype of CAR-T cells was evaluated by antibody staining for CD45RO (VioBlue®, clone REA611, Miltenyi #130-119-620) and CD62L (APC, clone DREG56, Invitrogen #17-0629-42) after 5-6 days of inhibitor culture (FIG. 1, FIG. 3). […]
On the technique in general: In flow cytometry, cells or beads pass a laser one at a time.

The subject of test [3] is Raji target cells. Briefly: 24-hr lysis assay of inhibitor-treated rituximab CD20 CAR-T cells against Raji. The test is classed as cell-based. Conditions: three E:T ratios, vs vehicle-treated. The text has this:
FIG. 1A-G. Pharmacological inhibition of PI3K/AKT pathway modulates antigen-independent CAR-T cell activation. (A) Table of pharmacological inhibitors used during ex vivo expansion of rituximab CAR-T cells (left). Simplified schematic of the PI3K/AKT signaling axis where black arrows represent activation (right). (B) Activation marker expression by CAR^+ T cells in the absence of antigen stimulation after 5 days of pharmacological modulation. Data bars indicate the means of technical triplicates±1 S.D. The bars in FIG. 1B represent data from, untreated, vehicle, CAL-101, AZD5363, Rapamycin, MYCi975, and Betulin, respectively, from left to right. (C) TNF-α production CAR^+ T cells in the absence of antigen stimulation as quantified by intracellular flow cytometry. Data bars indicate the means of technical triplicates±1 S.D. The bars in FIG. 1B and FIG. 1C represent data from, untreated, vehicle, CAL-101, AZD5363, Rapamycin, MYCi975, and Betulin, respectively, from left to right. (D) Proliferation of CAR^+ T cells stained with CellTrace Violet (CTV) dye was assayed after a 4-day culture in the absence of target cells or exogenous cytokines. Data shown in the histogram correspond to one of technical triplicates shown in the bar graph. The bars FIG. 1D represent data from, EGFRt, untreated, vehicle, CAL-101, AZD5363, Rapamycin, MYCi975, and Betulin, respectively, from left to right. (E) % distribution of T-cell subtypes in CAR^+ T cells after 5 days of pharmacological modulation. Data bars indicate the means of technical triplicates±1 S.D. (F) Rituximab CAR-T cell fold expansion after 6 days of inhibitor culture was tracked. […] Statistical significance in panels B, C, and D was determined by two-tailed Student's t test with Sidak correction for multiple comparisons. * p<0.05, ** p<0.01, *** p<0.001, n.s. not statistically significant.
Cytotoxicity assay with Raji cells. […] Remaining target cells were quantified by MACSQuant VYB flow cytometer 24-hr post co-incubation.

Regarding `C=C(C)[C@@H]1CC[C@]2(CO)CC[C@]3(C)[C@H](CC[C@@H]4[C@@]5(C)CC[C@H](O)C(C)(C)[C@@H]5CC[C@]43C)[C@@H]12` [betulin, Betulin], the “lysis of Raji tumor cells” value in test [1] and in test [3] was “clustered together” in each case. Moreover, the tonic signaling result in test [2] is on record as “increased”. Also, the “measures of antigen-independent CAR-T cell activation” value in test [2] is given as “increased most measures”.
Regarding MYCi975, in test [1], the “lysis of Raji tumor cells” value is “clustered together”. Besides, in test [2], the tonic signaling entry is “increased” and the “measures of antigen-independent CAR-T cell activation” value is “increased most measures”. The “lysis of Raji tumor cells” value in test [3] was “clustered together”.
